Laboratory results taken from patent publication US20210253520A1, “POLYMYXIN-BASED COMPOUNDS USEFUL AS ANTIBACTERIAL AGENTS” (UNIVERSITAT DE BARCELONA, priority 2018, published 2021).
Like-named read-outs stand apart in the source and are kept apart here. Numbered stars: 1 amine (or outer) side, 2 acyl side, 3 side chain; on linkers, the order of the positions; unused ones are H or OH. Bridge positions count the residues as written; N and C are the ends. Square brackets hold non-standard residues; d marks the D form. Peptide text beside a SMILES is read from it. * marks the point of attachment. X1 = C[C@@H](O)[C@@H](CS[*:1])N[*:2]; dGly(nOct) = CCCCCCCC[C@@H](N)C(=O)O; Hica(2S) = CC(C)C[C@H](O)C(=O)O; Octanoyl = CCCCCCCC(=O)*; Dab = NCC[C@H](N)C(=O)O

How the values were obtained:
Swiss CD-1 female mice = assay: Nephrotoxicity study, histopathological scoring of kidney lesions; type: in vivo; design: key to Group Score (GS): mean of per-animal summed 0-4 lesion scores; higher = more nephrotoxic; key to Animal Score (AS), Partial AS: sum of 0-4 lesion parameter scores; higher = more nephrotoxic; settings: for nephrotoxicity in mice, in words: nephrotoxicity tests carried out in mice, statement of the background; for Animal Score (AS), Partial AS: sum over all mice
Description: Swiss CD-1 female mice weighing approximately 20-24 g (JANVIER Labs) were used, housed in an individually ventilated cage system under specific pathogen-free conditions, and water and food supplied ad libitum. This study plan and the conduct of the study were subjected to review by the Scientific Park of Barcelona Ethical Review Process with the current study procedure Code CEEA (AR) 9377-P2. Mice were administered at a dose of 12 mg/Kg every 2 hours for a total of 6 administrations (total dose 72 mg/Kg), unless otherwise stated. After 20 h, animals were anesthesized with isoflurane, kidneys extracted and prepared for histopathological evaluation, and finally animales were sacrificed. Kidney lesions (tubule dilation, necrosis, tubule casts, cell vacuolization, cell desquamation, and cell swelling) were quantified by microscopical observation (see for instance, Roberts, ACS Infect. Dis., 2015, 1, 568). Each one of these parameters was scored with values from 0 to 4 for each animal, as a global result of observations in kidney. Partial scores have been added up to obtain a final score for each animal (Animal Score, AS). The mean of animal score has been obtained to define the Group Score (GS). The higher the score, the more nephrotoxic a compound is. The nephrotoxicity score has been determined as according to the following table of approximated values: […]

E. coli ATCC 25922 [1] = settings: comparative examples, extracted from Scientific Reports 5:10558 or WO2017093210A1; cited from earlier work
E. coli MB1410 [2] = settings: comparative examples, extracted from Scientific Reports 5:10558 or WO2017093210A1; cited from earlier work
K. pneumoniae MB674 [3] = settings: comparative examples, extracted from Scientific Reports 5:10558 or WO2017093210A1; cited from earlier work
P. aeruginosa ATCC 27853 [4] = settings: comparative examples, extracted from Scientific Reports 5:10558 or WO2017093210A1; cited from earlier work
P. aeruginosa 36A [5] = settings: comparative examples, extracted from Scientific Reports 5:10558 or WO2017093210A1; cited from earlier work
E. coli ATCC 25922 [6] = assay: microbe, parasite or virus in culture; type: cell-based; settings: for antibacterial activity (MIC): ATCC 25922
Description: (§1) The antibacterial activity of the polymyxin lipopeptides was measured at ISGlobal following the microdilution test to determine the Minimal Inhibitory Concentrations (MIC) in sterile 96-well polypropilene plates. The concentration range was 32 a […] in Iso-Sensitest broth (Oxoid, ThermoFisher). The results were carried out in triplicate and the highest MIC is the one shown. Bacterial strains were grown in blood agar plates at 37° C. for 17 h. Fresh colonies were used to prepare a McFarland 0.5 solution that was finally added to the plates at 1 to 100 dilution
(§2) Samples of sensitive and multi-drug resistant bacteria were: E. coli ATCC 25922 E. coli MB1410; K. pneumoniae MB674; P. aeruginosa ATCC 27853; P. aeruginosa 36A.

E. coli MB1410 [7] = assay: microbe, parasite or virus in culture; type: cell-based; settings: for antibacterial activity (MIC): MB1410
Description: as §1, §2

P. aeruginosa 36A [8] = assay: microbe, parasite or virus in culture; type: cell-based; settings: for antibacterial activity (MIC): 36A
Description: as §1, §2

P. aeruginosa ATCC 27853 [9] = assay: microbe, parasite or virus in culture; type: cell-based; settings: for antibacterial activity (MIC): ATCC 27853
Description: as §1, §2

K. pneumoniae MB674 [10] = type: cell-based; settings: for antibacterial activity (MIC): MB674
Description: as §1, §2

[11] = Table 8, 12 mg/Kg every 2 hours × 6 sc, total 72 mg/Kg, 3 mice
[12] = Table 6, 12 mg/Kg every 2 hours × 6, subcutaneous, total 72 mg/Kg
[13] = Table 6, mean of animal scores, 12 mg/Kg every 2 hours × 6, subcutaneous, total 72 mg/Kg
[14] = Table 6, sum of mouse scores, 12 mg/Kg every 2 hours × 6, subcutaneous, total 72 mg/Kg
[15] = Table 7, 8 mg/Kg every 2 hours × 6, total 48 mg/Kg

Compound	Group Score (GS) (Swiss CD-1 female mice; [11])	Mice found dead (Swiss CD-1 female mice; [11])	nephrotoxicity in mice, in words (Swiss CD-1 female mice)	antibacterial activity (MIC) (E. coli ATCC 25922 [1]) [µg/mL]	antibacterial activity (MIC) (E. coli MB1410 [2]) [µg/mL]	antibacterial activity (MIC) (K. pneumoniae MB674 [3]) [µg/mL]	antibacterial activity (MIC) (P. aeruginosa ATCC 27853 [4]) [µg/mL]	antibacterial activity (MIC) (P. aeruginosa 36A [5]) [µg/mL]	antibacterial activity (MIC) (E. coli ATCC 25922 [6]) [µg/mL]	antibacterial activity (MIC) (E. coli MB1410 [7]) [µg/mL]	antibacterial activity (MIC) (P. aeruginosa 36A [8]) [µg/mL]	antibacterial activity (MIC) (P. aeruginosa ATCC 27853 [9]) [µg/mL]	antibacterial activity (MIC) (K. pneumoniae MB674 [10]) [µg/mL]	Mice found dead (Swiss CD-1 female mice; [12])	Group Score (GS) (Swiss CD-1 female mice; [13])	Cell desquamation, Partial AS (Swiss CD-1 female mice; [14])	Cell vacuolization, Partial AS (Swiss CD-1 female mice; [14])	Cloudy swelling, Partial AS (Swiss CD-1 female mice; [14])	Tubular casts, Partial AS (Swiss CD-1 female mice; [14])	Tubular dilation, Partial AS (Swiss CD-1 female mice; [14])	other results
Heptanoyl-Dab-Thr-Dab-cyclo(S-S)[Cys-Dab-DAoc-Nle-Dab-Dab-DCys] [compound 3]	8	2 dead	showed nephrotoxicity	16	2	2	2	2	–	–	–	–	–	–	–	–	–	–	–	–	AS, Partial AS (Swiss CD-1 female mice; [11]): 8; Cell vacuolization, Partial AS (Swiss CD-1 female mice; [11]): 3; Tubular dilaion, Partial AS (Swiss CD-1 female mice; [11]): 2; Tubular necrosis, Partial AS (Swiss CD-1 female mice; [11]): 3
DAoc-Thr-Dab-cyclo(S-S)[Cys-Dab-DNIe-Leu-Dab-Dab-DCys] [compound 5]	4.3	none	showed nephrotoxicity	16	8	8	4	2	–	–	–	–	–	–	–	–	–	–	–	–	AS, Partial AS (Swiss CD-1 female mice; [11]): 13; Cell vacuolization, Partial AS (Swiss CD-1 female mice; [11]): 0; Cloudy swelling, Partial AS (Swiss CD-1 female mice; [11]): 4; Tubular casts, Partial AS (Swiss CD-1 female mice; [11]): 3; Tubular dilaion, Partial AS (Swiss CD-1 female mice; [11]): 6; Tubular necrosis, Partial AS (Swiss CD-1 female mice; [11]): 0
CCCCCCCC(=O)N[C@@H](CCN)C(=O)N[C@H](C(=O)N[C@@H](CCN)C(=O)N[C@H]1CSSC[C@H]([C@@H](C)O)NC(=O)[C@H](CCN)NC(=O)[C@H](CCN)NC(=O)[C@H](CC(C)C)OC(=O)[C@@H](Cc2ccccc2)NC(=O)[C@H](CCN)NC1=O)[C@@H](C)O [Example 9, Octanoyl-Dab-Thr-Dab-cyclo(S-S)[Cys-Dab-DPhe-OLe-Dab-Dab-Ttr]] (Octanoyl-[Dab]T[Dab]C[Dab][dF][Hica(2S)][Dab][Dab]; linker 4-C via X1)	–	–	–	–	–	–	–	–	4	1	2	2	1	1	0	0	0	0	0	0	Tubular necrosis, Partial AS (Swiss CD-1 female mice; [14]): 0; Animal Score (AS), Partial AS (Swiss CD-1 female mice; [12]): 0
DAoc-Thr-Dab-cyclo(S-S)[Cys-Dab-DAoc-Leu-Dab-Dab-DCys] [compound 4]	All mice dead	3	showed nephrotoxicity	4	4	2	2	2	–	–	–	–	–	–	–	–	–	–	–	–	–
Colistin [Col.]	–	–	–	0.5	0.5	1	2	1	–	–	–	–	–	–	–	–	–	–	–	–	MIC (E. coli ATCC 25922 [6]; resistance profile of strain E. coli ATCC 25922, Table 3): 0.5 µg/mL; MIC (E. coli MB1410 [7]; resistance profile of strain E. coli MB1410, Table 3): 0.75 µg/mL; MIC (P. aeruginosa 36A [8]; resistance profile of strain P. aeruginosa 36A, Table 3): 1 µg/mL; MIC (P. aeruginosa ATCC 27853 [9]; resistance profile of strain P. aeruginosa ATCC 27853, Table 3): 2 µg/mL; MIC (K. pneumoniae MB674 [10]; resistance profile of strain K. pneumoniae MB674, Table 3): 0.2 µg/mL
CCCCCCCC[C@@H](N)C(=O)N[C@H](C(=O)N[C@@H](CCN)C(=O)N[C@H]1CSSC[C@H]([C@@H](C)O)NC(=O)[C@H](CCN)NC(=O)[C@H](CCN)NC(=O)[C@H](CC(C)C)NC(=O)[C@@H](CC(C)C)NC(=O)[C@H](CCN)NC1=O)[C@@H](C)O [Example 6, DAdec-Thr-Dab-cyclo(S-S)[Cys-Dab-DLeu-Leu-Dab-Dab-Ttr]] (H-[dGly(nOct)]T[Dab]C[Dab][dL]L[Dab][Dab]; linker 4-C via X1; N-terminus assumed)	–	–	–	–	–	–	–	–	2	0.5	0.5	1	0.5	2	1	0	0	5	1	0	Tubular necrosis, Partial AS (Swiss CD-1 female mice; [14]): 0; Animal Score (AS), Partial AS (Swiss CD-1 female mice; [12]): 6; AS, Partial AS (Swiss CD-1 female mice; [15]): 1; Cell vacuolization, Partial AS (Swiss CD-1 female mice; [15]): 0; Cloudy swelling, Partial AS (Swiss CD-1 female mice; [15]): 1; Group Score (GS) (Swiss CD-1 female mice; [15]): 0.2; Mice found dead (Swiss CD-1 female mice; [15]): None; Tubular casts, Partial AS (Swiss CD-1 female mice; [15]): 0; Tubular dilation, Partial AS (Swiss CD-1 female mice; [15]): 0; Tubular necrosis, Partial AS (Swiss CD-1 female mice; [15]): 0
CCCCCCCC[C@@H](N)C(=O)N[C@H](C(=O)N[C@@H](CCN)C(=O)N[C@H]1CSSC[C@H]([C@@H](C)O)NC(=O)[C@H](CCN)NC(=O)[C@H](CCN)NC(=O)[C@H](CC(C)C)OC(=O)[C@@H](CC(C)C)NC(=O)[C@H](CCN)NC1=O)[C@@H](C)O [Example 8, DAdec-Thr-Dab-cyclo(S-S)[Cys-Dab-DLeu-OLe-Dab-Dab-Ttr]] (H-[dGly(nOct)]T[Dab]C[Dab][dL][Hica(2S)][Dab][Dab]; linker 4-C via X1)	–	–	–	–	–	–	–	–	2	1	1	2	1	None	0	0	0	0	0	0	Tubular necrosis, Partial AS (Swiss CD-1 female mice; [14]): 0; Animal Score (AS), Partial AS (Swiss CD-1 female mice; [12]): 0
